Values of other authors in US20240398972A1, “METHODS FOR PRODUCING ANTIBODY-LINKER CONJUGATES” (ARARIS BIOTECH AG, priority 2021, published 2024).
pKd: −log10 of the molar value.

Experiments:
[1] = system: various tumor cell lines; conditions: cytostatic effects
[2] = target: DNA-dependent RNA polymerase II (Homo sapiens, UniProt P24928); conditions: complex amanitin / RNA-polymerase II, not covalently bound

Molecule	IC50 [1]	pKd [2]
CC[C@H](C)[C@H](NC(=O)[C@H]1CCCCN1C)C(=O)N(COC(=O)CC(C)C)[C@H](C[C@@H](OC(C)=O)c1nc(C(=O)N[C@@H](Cc2ccc(O)cc2)C[C@H](C)C(=O)O)cs1)C(C)C [Tubulysin A]	picomolar range	–
amanitin	–	8.52
